Results: patent US20200282010A1, “IMMUNOGENIC COMPOSITIONS AND USES THEREFOR” (Epiaxis Therapeutics Pty Ltd, priority 2017, published 2020)

Key:
PKC-β2 = molecular target: T1, PKC-β2 (Homo sapiens, UniProt P05771); test: Nuclear localization of PKC-β2 (Fn/c, immunofluorescence), specificity; type: cell-based; settings: MCF7 breast cancer cell line; FIG. 1D
T1 construct: endogenous in cells; host or cells: MCF7
Excerpt: (§1) FIG. 1 is a graphical, schematic and photographic representation showing that PKC-θ can be targeted for therapeutic intervention. A) Depicts the strength of binding of recombinant purified His6-PKC-θ to increasing concentrations of different subunits and subunit combinations (α2, α2β1, and β1) of the importin α/β heterodimer nuclear transport receptor using an AlphaScreen® binding assay as described in Wagstaff et al. (2011. Journal of Biomolecular Screening 16 (2):192-200). B-C) Depicts protein structure of PKC-θ indicating binding locations for the PKC-θ peptide inhibitor, PKCθi (RKEIDPPFRPKVK), including the nuclear localization sequence (NLS) of PKC-θ. D) The specificity of PKCθi was examined on cells treated with this peptide inhibitor. Cells were screened with primary antibodies to PKC-θ (T538p), PKC-β2, PKC-β1, PKC-α, PKC-ε and PKC-γ. The nuclear to cytoplasmic fluorescence ratio (Fn/c) using the equation: Fn/c=(Fn−Fb)/(Fc−Fb), where Fn is nuclear fluorescence, Fc is cytoplasmic fluorescence, and Fb is background fluorescence was used to determine the impact on nuclear translocation/localization. […] EC^50 of inhibitors calculated using GraphPad PRISM software. F) The PKC-θ kinase activity was measured using the PKC kinase activity kit from ENZO life sciences and recombinant PKC-θ; C27 is an inhibitor of PKC-θ kinase activity, which is disclosed in Jimenez et al. (2013. […]

PKC-β1 = molecular target: T2, PKC-β1 (Homo sapiens, UniProt P05771); test: Nuclear localization of PKC-β1 (Fn/c, immunofluorescence), specificity; type: cell-based; settings: MCF7 breast cancer cell line; FIG. 1D
T2 construct: endogenous in cells; host or cells: MCF7
T2 sequence (P05771 whole entry): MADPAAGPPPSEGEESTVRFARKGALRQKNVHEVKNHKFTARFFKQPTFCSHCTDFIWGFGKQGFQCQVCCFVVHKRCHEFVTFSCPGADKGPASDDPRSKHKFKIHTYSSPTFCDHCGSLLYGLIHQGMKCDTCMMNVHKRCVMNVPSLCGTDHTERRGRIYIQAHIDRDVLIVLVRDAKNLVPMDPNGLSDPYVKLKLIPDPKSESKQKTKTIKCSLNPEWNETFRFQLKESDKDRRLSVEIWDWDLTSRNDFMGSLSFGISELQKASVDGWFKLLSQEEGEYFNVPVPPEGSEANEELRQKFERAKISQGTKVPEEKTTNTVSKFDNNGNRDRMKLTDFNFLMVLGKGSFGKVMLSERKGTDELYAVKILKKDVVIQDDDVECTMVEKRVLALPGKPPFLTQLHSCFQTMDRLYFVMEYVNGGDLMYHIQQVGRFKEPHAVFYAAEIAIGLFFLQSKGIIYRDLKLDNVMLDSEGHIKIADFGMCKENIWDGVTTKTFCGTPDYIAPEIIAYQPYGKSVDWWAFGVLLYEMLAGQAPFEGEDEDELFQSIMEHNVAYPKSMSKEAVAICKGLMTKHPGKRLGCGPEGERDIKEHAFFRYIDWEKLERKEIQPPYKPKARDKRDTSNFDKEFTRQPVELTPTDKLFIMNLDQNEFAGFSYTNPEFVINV
Excerpt: as §1

PKC-γ = molecular target: T3, PKC-γ (Homo sapiens, UniProt P05129); test: Nuclear localization of PKC-γ (Fn/c, immunofluorescence), specificity; type: cell-based; settings: MCF7 breast cancer cell line; FIG. 1D
T3 construct: endogenous in cells; host or cells: MCF7
Excerpt: as §1

MCF7 cells = test: Cell proliferation (WST-1 assay); type: cell-based; settings: FIG. 1E
Excerpt: as §1

[1] = tested on: PBMC cells isolated from CR and PD melanoma liquid biopsies; test: RT-PCR expression of IL-2, IFN-γ and TNF-α in PBMCs from melanoma patient liquid biopsies; type: cell-based, human; settings: FIG. 2B
Procedure: FIG. 2 is a photographic and graphical representation depicting a PKC-θ resistance signature in CD8^+ T-cells from BRAF negative melanoma patients. A) Melanoma patient formalin-fixed paraffin-embedded (FFPE) tissue from primary tumor baseline biopsy for either a complete response (CR), stable disease (SD) or progressive disease (PD) was processed by 3D high resolution microscopy using a Leica Bond RX Stainer. FFPE tissues were fixed and immunofluorescence microscopy was performed probing with primary antibodies to anti-PD1, anti-PKC-θ (T538p) and anti-CD8 with DAPI. Representative images for each dataset are shown. Graph plots represent the TCFI values for CD8, TNFI for PKC-θ and TCFI for PD1 measured using ImageJ minus background (N=40 cells per a patient sample). B) Peripheral blood mononuclear cells (PBMCs) isolated from melanoma patient liquid biopsies were pre-clinically screened with either control or PKCθi nuclear peptide inhibitor. PBMC Samples were screened in triplicate for expression of IL-2, IFN-γ and TNF-α. C) Melanoma patient FFPE tissue from primary tumor baseline biopsy for CR, SD and two PD cohorts defined by responder or resistant to Dual Immunotherapy was processed by 3D high resolution microscopy using a Leica Bond RX Stainer. FFPE tissues were fixed and immunofluorescence microscopy was performed probing with primary antibodies to anti-PD1, anti-PKC-θ (T538p), anti-CD8 and anti-ZEB1 with DAPI. Representative images for each dataset are shown. Graph plots represent the TCFI values for CD8, TNFI for PKC-θ and TNFI for ZEB1 measured using ImageJ minus background (N=40 cells per a patient sample).
IL-2, IFN-γ and TNF-α are markers of T-cell activation and effector capacity whereas ZEB1 is a negative regulator of T-cell responses and is linked with T-cell effector inhibition as well as cancer progression. Accordingly, the expression of these biomarkers was investigated in the context of modulating the PKC-θ pathway. Employing RT-PCR, the present inventors profiled expression of the effect of PKCθi in PBMC cells isolated from CR and PD melanoma liquid biopsies.

T1 sequence (P05771 1-673 isoform P05771-2): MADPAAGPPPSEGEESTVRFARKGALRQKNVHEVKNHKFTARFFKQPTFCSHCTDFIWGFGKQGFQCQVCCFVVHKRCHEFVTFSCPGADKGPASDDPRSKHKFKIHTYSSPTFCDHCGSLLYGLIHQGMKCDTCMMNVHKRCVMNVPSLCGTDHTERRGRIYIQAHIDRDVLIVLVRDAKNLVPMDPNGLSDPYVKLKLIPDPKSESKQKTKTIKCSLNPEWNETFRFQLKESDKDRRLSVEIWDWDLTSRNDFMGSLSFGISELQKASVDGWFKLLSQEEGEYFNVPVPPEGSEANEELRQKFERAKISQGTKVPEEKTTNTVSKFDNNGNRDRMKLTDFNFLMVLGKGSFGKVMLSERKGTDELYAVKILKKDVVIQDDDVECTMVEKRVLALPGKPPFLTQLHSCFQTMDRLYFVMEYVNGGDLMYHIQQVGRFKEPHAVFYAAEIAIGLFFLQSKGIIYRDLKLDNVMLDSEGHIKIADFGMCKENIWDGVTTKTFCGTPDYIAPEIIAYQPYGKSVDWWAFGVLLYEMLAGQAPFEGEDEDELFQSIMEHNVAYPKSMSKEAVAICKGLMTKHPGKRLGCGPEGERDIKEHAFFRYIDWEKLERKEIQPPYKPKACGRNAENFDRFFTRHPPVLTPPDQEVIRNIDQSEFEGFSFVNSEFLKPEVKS

RKEIDPPFRPKVK [PKCθi]
nuclear localization of PKC-β2 (PKC-β2): no effect
nuclear localization of PKC-β1 (PKC-β1): no effect
nuclear localization of PKC-γ (PKC-γ): no effect
proliferation of MCF7 cells (MCF7 cells): significantly inhibit
expression of IFN-γ ([1]; CR patient cohort): some induction
expression of IL-2 ([1]; CR patient cohort): some induction
expression of TNF-α ([1]; CR patient cohort): some induction
expression of IFN-γ ([1]; PD patient cohort): significantly induced
expression of IL-2 ([1]; PD patient cohort): significantly induced
expression of TNF-α ([1]; PD patient cohort): significantly induced
